We go through five compounds from paper PMC4013053, “Identification of Selective Small Molecule Inhibitors of the Nucleotide-Binding Oligomerization Domain 1 (NOD1) Signaling Pathway” (PLoS ONE, 2014).

The nature of data set [1]: Immobilized artificial membrane (IAM) binding. Format: physicochemical. From the text: (§1) Physicochemical analyses of compounds were completed at GSK.
The target of the next data set is T1, endogenous NOD1 (Homo sapiens, UniProt Q9Y239).
T1 construct: Compound activity on endogenous NOD1 and NOD2 receptors was determined; host or cells: HCT116
T1 sequence (Q9Y239 1-953): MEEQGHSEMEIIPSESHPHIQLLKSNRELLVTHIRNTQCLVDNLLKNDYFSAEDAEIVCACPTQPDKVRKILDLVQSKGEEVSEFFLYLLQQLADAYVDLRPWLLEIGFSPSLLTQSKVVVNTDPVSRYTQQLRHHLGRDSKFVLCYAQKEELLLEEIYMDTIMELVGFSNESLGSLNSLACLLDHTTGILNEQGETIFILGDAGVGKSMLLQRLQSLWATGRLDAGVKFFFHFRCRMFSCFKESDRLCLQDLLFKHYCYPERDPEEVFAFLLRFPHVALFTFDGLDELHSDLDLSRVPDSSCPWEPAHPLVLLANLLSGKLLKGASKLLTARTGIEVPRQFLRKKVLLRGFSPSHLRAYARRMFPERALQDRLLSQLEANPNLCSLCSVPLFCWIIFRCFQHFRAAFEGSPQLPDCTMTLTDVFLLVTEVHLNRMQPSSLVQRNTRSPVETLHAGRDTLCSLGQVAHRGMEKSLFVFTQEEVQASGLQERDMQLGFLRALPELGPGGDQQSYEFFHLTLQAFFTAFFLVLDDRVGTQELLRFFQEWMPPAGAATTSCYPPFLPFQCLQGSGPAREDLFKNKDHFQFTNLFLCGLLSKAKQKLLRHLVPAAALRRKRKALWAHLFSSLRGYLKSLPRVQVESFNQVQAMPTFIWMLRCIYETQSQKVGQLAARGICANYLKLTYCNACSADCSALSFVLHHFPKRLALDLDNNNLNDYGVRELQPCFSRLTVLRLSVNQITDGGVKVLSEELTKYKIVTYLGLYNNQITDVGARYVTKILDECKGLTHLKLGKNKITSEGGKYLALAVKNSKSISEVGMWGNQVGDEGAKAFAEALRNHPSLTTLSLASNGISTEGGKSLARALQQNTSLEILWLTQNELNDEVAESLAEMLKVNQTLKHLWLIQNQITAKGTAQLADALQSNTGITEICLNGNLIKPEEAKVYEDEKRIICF
As to the kind of experiment: Tri-DAP-stimulated IL-8 release in HCT116 cells. The class given is cell-based. Conditions: for IC50: human colon carcinoma cells, IL-8 released into medium; for inhibition of Tri-DAP-stimulated IL-8 secretion: HCT116, increasing concentrations (16 nM–16 µM). The protocol:
For assay, cells were seeded into 96 well plates (90,000 cells/well) in DMEM containing 1% FBS and pre-incubated with compounds for 1 hour before addition of either 25 µg/mL Tri-DAP or 1 µg/mL MDP. The level of IL-8 released into medium after 24-hour incubation was determined by HTRF assay (Cisbio) as described above and fluorescence measured on an Envision model 2102 multilabel plate reader (Perkin Elmer). The activity of compounds against NOD1-induced type I interferon response was determined by inhibition of Tri-DAP stimulated IP-10 secretion in HT-29 cells, maintained in the same medium as for HCT116 cells. The HT-29 cells were seeded into 96 well plates (60,000 cells/well) in DMEM with 1% FBS, pre-incubated with compounds for 1 hour and stimulated for 24 hours with 50 µg/mL Tri-DAP. The concentration of IL-8 released into the medium was measured by HTRF as above, IP-10 was measured using the IP-10/CXCL10 Quantikine ELISA kit (R&D Systems), and IFNβ was measured using the MA6000 human IFN-β tissue culture kit (Meso Scale Discovery).

For another data set, the target named is T2, TNFR1 (Homo sapiens, UniProt P19438).
T2 construct: TNFR1 (TNFα stimulated IL-8 secretion in 293/hNOD1 cells); host or cells: 293/hNOD1 (HEK293)
T2 sequence (P19438 30-455): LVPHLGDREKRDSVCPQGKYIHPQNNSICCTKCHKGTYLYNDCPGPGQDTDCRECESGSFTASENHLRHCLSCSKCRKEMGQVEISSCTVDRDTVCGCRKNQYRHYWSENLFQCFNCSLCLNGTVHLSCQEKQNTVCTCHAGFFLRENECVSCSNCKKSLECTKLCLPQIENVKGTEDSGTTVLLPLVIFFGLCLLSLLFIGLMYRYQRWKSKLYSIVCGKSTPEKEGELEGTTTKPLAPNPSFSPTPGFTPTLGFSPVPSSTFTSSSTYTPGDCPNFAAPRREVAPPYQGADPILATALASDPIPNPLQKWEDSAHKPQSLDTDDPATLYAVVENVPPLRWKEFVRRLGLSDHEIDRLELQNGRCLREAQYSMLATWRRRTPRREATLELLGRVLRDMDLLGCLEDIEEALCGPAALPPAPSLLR
Briefly: TNFα-stimulated IL-8 release in 293/hNOD1 cells. The settings on record: IL-8 released into medium. The class given is cell-based. How it is done:
Inhibitors of iE-DAP-stimulated IL-8 release were screened in a 1536-well assay in which 293/hNOD1 cells (5000 cells/well) in DMEM high glucose medium supplemented with 0.1% FBS and 10 µg/mL Blasticidin S were stimulated with 60 ng/mL (200 nM) iE-DAP (EC80) in the presence of 10 µM compounds. After 24 hours the amount of IL-8 secreted into the medium was determined by homogeneous time resolved fluorescence (HTRF) assay by the direct addition of a 1∶1 mix of europium cryptate and XL665-conjugated anti-IL-8 antibodies according to the manufacturer’s instructions (Cisbio). Fluorescence was measured after 2 hours in a ViewLux imager using UMB-AMC excitation and 618–671 nm emission filters (Perkin Elmer). […] Inhibition of TNFR1-induced IL-8 release was performed with 293/hNOD1 cells stimulated with 20 ng/mL (∼EC95) rhTNFα.
A high-throughput screen of about 2.2 million compounds was conducted for inhibitors of the NOD1 signaling pathway using suppression of iE-DAP stimulated IL-8 secretion in HEK293 cells stably expressing human NOD1 (293/hNOD1 cells). […] These assays were chosen to assess the selectivity of hits because the signaling pathways activated by these receptors converge at the level of the TAB/TAK1/IKK complex.

The next data set deals with α1-acid glycoprotein. As to the kind of experiment: α1-acid glycoprotein (AGP) binding. The class given is in vitro ADME.
Text: as §1

The target of a further data set is T3, full length human RIP2 (Homo sapiens, UniProt O43353).
T3 construct: autophosphorylation of full length human FLAG-6His tagged RIP2 expressed and purified from baculovirus; FLAG; 6His; made in house
Briefly: RIP2 kinase autophosphorylation (ADP-Glo). Format: biochemical. The settings on record: RIPK2 autophosphorylation. How it is done: Direct effects of compounds on RIP2 kinase activity was determined by autophosphorylation of full length human FLAG-6His tagged RIP2 expressed and purified from baculovirus. Enzyme was pre-incubated with compounds in assay buffer (50 mM HEPES pH 7.5, 25 mM MgCl2, 0.05%[w/v] CHAPS, 1 mM DTT and 0.05 mg/mL BSA) in 384-well plates, and then incubated with 10 µM ATP for 2 hours at room temperature. The amount of ADP generated was measured using the ADP-Glo universal ADP detection assay for kinases (Promega) and luminescence quantified on a ViewLux imager.
A general note: In ADP-Glo the light output rises with the ADP produced.

T3 sequence (O43353 whole entry): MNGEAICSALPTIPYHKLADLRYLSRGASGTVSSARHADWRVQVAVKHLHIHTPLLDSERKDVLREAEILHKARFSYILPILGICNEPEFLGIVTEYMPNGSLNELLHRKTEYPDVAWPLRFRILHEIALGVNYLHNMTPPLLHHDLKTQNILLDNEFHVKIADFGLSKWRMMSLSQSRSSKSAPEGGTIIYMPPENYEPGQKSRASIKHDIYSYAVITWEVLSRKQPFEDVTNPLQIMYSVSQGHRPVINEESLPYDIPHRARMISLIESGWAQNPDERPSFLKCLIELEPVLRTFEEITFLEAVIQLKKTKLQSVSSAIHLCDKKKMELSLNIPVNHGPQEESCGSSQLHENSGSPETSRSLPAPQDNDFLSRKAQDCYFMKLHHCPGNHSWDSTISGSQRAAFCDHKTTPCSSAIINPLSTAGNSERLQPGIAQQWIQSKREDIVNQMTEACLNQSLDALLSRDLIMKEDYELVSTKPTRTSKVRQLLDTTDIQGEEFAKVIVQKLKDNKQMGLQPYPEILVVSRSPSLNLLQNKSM

As for `Cc1ccc(S(=O)(=O)Nc2cccc(C(=O)Nc3ccc4nc(C)sc4c3)c2)cc1` [Compound 16], the IAM binding in data set [1] is 2.45 log K. The half-inhibitory concentration (IC50) (commonly the concentration that gives 50% inhibition) on endogenous NOD1 was 0.06 µM; on TNFR1, > 30 µM; against full length human RIP2, > 50 µM. The same compound had an AGP binding in the data set with α1-acid glycoprotein of 85.71%.

With `Cc1nc2ccccc2c(=O)n1-c1ccc(Cl)c(NS(=O)(=O)c2ccccc2F)c1` [Compound 22], the IC50 on endogenous NOD1 was 0.03 µM; at TNFR1, > 50 µM; against full length human RIP2, > 50 µM.

`CCc1ccc(S(=O)(=O)Nc2cc(-n3c(C)nc4ccccc4c3=O)ccc2F)s1` [GSK223] registered an IAM binding in data set [1] of 1.68 log K. For the same compound, the “inhibition of Tri-DAP-stimulated IL-8 secretion” value (from here on “inhibition”) against endogenous NOD1 is recorded as “complete inhibition”. In addition, the IC50 at endogenous NOD1 is 0.4 µM; at TNFR1, > 50 µM; on full length human RIP2, > 50 µM. In the data set on α1-acid glycoprotein, this compound registered an AGP binding of 80.81%.

Take `Cc1nc2ccc(NC(=O)c3cccc(NS(=O)(=O)c4ccc(F)cc4)c3)cc2s1` [GSK966]: the IAM binding in data set [1] is 2.38 log K. The “inhibition” value against endogenous NOD1 is “complete inhibition”. The IC50 was 0.7 µM at endogenous NOD1, > 50 µM on TNFR1 and > 100 µM against full length human RIP2. For the same compound, the AGP binding in the data set on α1-acid glycoprotein was 83.38%.

As to `Cn1c(=O)[nH]c(=O)c2c1nc(CCSc1ccccc1)n2Cc1ccccc1` [SB711], the IAM binding in data set [1] was 2.41 log K. The “inhibition” value at endogenous NOD1 is “complete inhibition”. Also, the IC50 was 0.9 µM on endogenous NOD1, > 50 µM at TNFR1 and > 100 µM against full length human RIP2.
